# Reference: patent US20070249607A1, “NK-1 AND SEROTONIN TRANSPORTER INHIBITORS” (Bristol-Myers Squibb Company, priority 2006, published 2007)
# Like-named read-outs stand apart in the source and are kept apart here.
# What was measured:
# [1] = molecular target: T1, neurokinin-1 (NK-1) receptor (Homo sapiens, UniProt P25103); experiment: NK-1 Binding assay ([125I] Substance P competition, U373 cell membranes); conditions: U373 membranes, [125I] Substance P displacement, read-out: NK-1 IC50
# T1 construct: a human glioblastoma-astrocytoma cell line that endogenously expresses the neurokinin-1 (NK-1) receptor; endogenous in cells; host or cells: U373 human glioblastoma-astrocytoma cells (membranes)
# Protocol: NK-1 Binding assay. U373 cells, a human glioblastoma-astrocytoma cell line that endogenously expresses the neurokinin-1 (NK-1) receptor, were grown in a monolayer culture at 37° C. in 5% CO2 and fed with Minimum Essential Medium (MEM) supplemented with 10% fetal bovine serum. Membranes were prepared as follows: Cells were washed twice with ice-cold phosphate-buffered saline (pH 7.4) and then incubated for 5-10 minutes with ice-cold 10 mM Tris buffer (pH 7.4) containing 5 mM EDTA. Cells were removed from plates, homogenized, and centrifuged at 32,000×g for 20 minutes. The resulting supernatant was discarded, and the pellet resuspended by homogenization in 50 mM Tris buffer (pH 7.4) containing 1 mM EDTA and centrifuged at 32,000×g for 20 minutes. The resulting supernatant was discarded, and the pellet resuspended by homogenization in NK-1 binding assay buffer (50 mM Tris-HCL (pH 7.4), 3 mM MnCl2, 200 μg/ml BSA, 5 μg/ml chymostatin, 40 μg/ml bacitracin and 4 μg/ml leupeptin).
# On the day of an experiment the membrane preparation was thawed, homogenized and diluted with NK-1 binding assay buffer to the appropriate concentration. […] Substance P, at a concentration of […], and concentrations of drugs ranging from 10000 to 0.01 nM. Samples were incubated for 30 min at 20° C. then filtered through GF/B glass fiber filters (pretreated with 1% polyethyleneimine and 0.3% Triton X-100) using a Brandel cell harvester. The filters were then washed with 10 ml ice cold 50 mM Tris-HCL (pH 7.4) containing 3 mM MgCl2. […] The amount of radioligand bound in the presence and absence of competitor was analyzed by plotting (-)log drug concentration versus the amount of radioligand specifically bound. The midpoint of the displacement curve (IC50, nM), signifies the potency.
# [2] = molecular target: T2, human serotonin transporters (Homo sapiens, UniProt P31645); experiment: Serotonin transporter binding assay ([3H]-citalopram competition, HEK-hSERT cell membranes)
# T2 construct: expressed in transfected cells
# Protocol: Serotonin transporter binding assay. HEK-293 cells that stably express human serotonin transporters (HEK-hSERT cells) were grown at 37° C. in 5% CO2 as a monolayer in medium consisting of EMEM supplemented with 10% fetal bovine serum and G418 sulfate (500 μg/ml). To prepare membranes for radioligand binding experiments, cells were rinsed twice with phosphate-buffered saline (138 mM NaCl, 4.1 mM KCl, 5.1 mM Na2PO4, 1.5 mM KH2PO4, 11.1 mM glucose, pH 7.4). Cells were transferred from plates to polypropylene tubes (16×100 mm), centrifuged at 1,200×g for 5 min and were frozen at −80° C. until assay. Following centrifugation, pellets were resuspended by homogenization in buffer consisting of 50 mM Tris (pH 7.7 at 25° C.), 120 mM NaCl and 5 mM KCl and then centrifuged at 32,000×g for 10 min. Following centrifugation, supernatants were discarded and pellets were resuspended in buffer consisting of 50 mM Tris (pH 7.4 at 25° C.), 150 mM NaCl and 5 mM KCl. Membrane homogenates (200 μl/plate) were incubated with 1 nM [^3H]-citalopram (specific activity=85 Ci/mmol) and increasing concentrations of test compounds for 1 hr at 25° C. in a total volume of 250 μl. The assay buffer consisted of 50 mM Tris (pH 7.4 at 25° C.), 120 mM NaCl and 5 mM KCl (pH 7.4 with conc. HCl). Plates were incubated for 1 hr at 25° C., then filtered through 0.5% PEI treated Whatman GF/B filters using a Brandel cell harvester. Filters were washed three times with 3 ml of ice-cold tris wash buffer. Non-specific binding was defined with 10 μM fluoxetine. Amount of radioligand bound in the presence and absence of competitor was analyzed by plotting (-)log drug concentration versus the amount of radioligand specifically bound. The midpoint of the displacement curve (IC50, nM), signifies the potency. Ki values can be calculated using the method of Cheng and Prusoff (Cheng and Prusoff, BiochemicalPharmacology, Vol 22, pp. 3099-3108, Pergamon Press (1973)).
# [3] = Table 1, HEK-hSERT membranes, [3H]-citalopram displacement, read-out: SERT IC50
# [4] = Table 2, HEK-hSERT membranes, [3H]-citalopram displacement, read-out: SERT IC50
# T1 sequence (P25103 whole entry): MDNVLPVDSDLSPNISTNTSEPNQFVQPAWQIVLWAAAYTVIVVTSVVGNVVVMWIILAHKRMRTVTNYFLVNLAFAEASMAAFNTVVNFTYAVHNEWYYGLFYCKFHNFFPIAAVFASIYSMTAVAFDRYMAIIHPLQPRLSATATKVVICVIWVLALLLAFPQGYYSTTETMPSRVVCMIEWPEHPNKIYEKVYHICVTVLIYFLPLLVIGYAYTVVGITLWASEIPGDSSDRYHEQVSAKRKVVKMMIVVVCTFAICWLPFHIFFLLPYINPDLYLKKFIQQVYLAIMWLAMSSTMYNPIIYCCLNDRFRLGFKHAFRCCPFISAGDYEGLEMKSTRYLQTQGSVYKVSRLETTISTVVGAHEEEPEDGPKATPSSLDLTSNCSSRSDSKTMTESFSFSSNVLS
# T2 sequence (P31645 whole entry): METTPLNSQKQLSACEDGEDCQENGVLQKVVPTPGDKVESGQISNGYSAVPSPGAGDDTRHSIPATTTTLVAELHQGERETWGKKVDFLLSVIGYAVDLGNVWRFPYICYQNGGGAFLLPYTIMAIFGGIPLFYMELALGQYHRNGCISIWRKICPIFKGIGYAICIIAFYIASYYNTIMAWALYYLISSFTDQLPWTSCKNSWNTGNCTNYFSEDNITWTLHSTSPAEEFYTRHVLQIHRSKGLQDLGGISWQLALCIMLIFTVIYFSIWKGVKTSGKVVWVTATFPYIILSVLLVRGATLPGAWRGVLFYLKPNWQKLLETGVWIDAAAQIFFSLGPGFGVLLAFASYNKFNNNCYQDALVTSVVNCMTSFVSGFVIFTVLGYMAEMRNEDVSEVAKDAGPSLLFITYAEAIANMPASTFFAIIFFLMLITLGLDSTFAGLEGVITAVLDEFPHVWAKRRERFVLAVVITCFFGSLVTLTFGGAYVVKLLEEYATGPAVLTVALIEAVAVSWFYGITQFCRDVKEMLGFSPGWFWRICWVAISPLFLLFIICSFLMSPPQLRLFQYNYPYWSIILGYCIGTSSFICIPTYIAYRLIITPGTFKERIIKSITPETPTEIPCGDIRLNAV
SMILES,IC50 ([1]; Table 1) [nM],"IC50 [2, 3] [nM]",IC50 ([1]; Table 2) [nM],"IC50 [2, 4] [nM]",IC50 [2] [nM]
FC(F)(F)c1cc(COCC2(c3ccccc3)CCNCC2)cc(-c2cccc3c2Sc2ccccc2S3)c1,> 300,> 300,,,
CN1CCC(COCc2cc(-c3ccc(F)cc3)cc(C(F)(F)F)c2)(c2ccc(F)cc2)CC1,,,0.01 to 100,,0.01 to 100
N#Cc1ccc(-c2cc(COCC3(c4ccccc4)CCN(C4CC4)CC3)cc(C(F)(F)F)c2)cc1,,,0.01 to 100,> 300,
C[C@@H](OCC1(c2ccccc2)CCNCC1)c1cc(-c2ccc(C#N)cc2)cc(C(F)(F)F)c1,0.01 to 100,0.01 to 100,,,
COc1cccc(OC)c1-c1cc(COCC2(c3ccccc3)CCNCC2)cc(C(F)(F)F)c1,0.01 to 100,0.01 to 100,,,
COc1cccc(-c2cc(COCC3(c4ccccc4)CCNCC3)cc(C(F)(F)F)c2)c1OC,,,100 to 300,100 to 300,
CN1CCC(COCc2cc(F)cc(-c3ccc(F)cc3)c2)(c2ccccc2)CC1,,,100 to 300,,0.01 to 100
Cc1cc(-c2cc(COCC3(c4ccccc4)CCNCC3)cc(C(F)(F)F)c2)ccc1F,,,0.01 to 100,0.01 to 100,
CN1CCC(COCc2cc(-c3ccc(C#N)cc3)cc(C(F)(F)F)c2)(c2cccnc2)CC1,,,0.01 to 100,,0.01 to 100
Fc1ccc(-c2cc(COCC3(c4ccc(F)cc4)CCNCC3)cc(C(F)(F)F)c2)cc1,,,0.01 to 100,0.01 to 100,
CN1CCC(COCc2cc(-c3ccc(F)cc3)cc(C(F)(F)F)c2)(c2ccccc2)CC1,,,0.01 to 100,,0.01 to 100
FC(F)(F)c1cc(COCC2(c3ccccc3)CCNCC2)cc(-c2cccc(-c3ccccc3)c2)c1,100 to 300,100 to 300,,,
COc1ccc(-c2cc(COCC3(c4ccccc4)CCN(C)CC3)cc(C(F)(F)F)c2)cc1,,,0.01 to 100,,0.01 to 100
CN1CCC(COCc2cc(-c3ccc(F)c(Cl)c3)cc(C(F)(F)F)c2)(c2ccccc2)CC1,,,0.01 to 100,,0.01 to 100
CN1CCC(COCc2cc(-c3ccc(C#N)cc3)cc(C(F)(F)F)c2)(c2ccc(C#N)cc2)CC1,,,0.01 to 100,,0.01 to 100
Fc1ccc(-c2cc(COCC3(c4ccccc4)CCNCC3)cc(C(F)(F)F)c2)cc1Cl,0.01 to 100,0.01 to 100,,,

SMILES,IC50 ([1]; Table 1) [nM],"IC50 [2, 3] [nM]",IC50 ([1]; Table 2) [nM],"IC50 [2, 4] [nM]",IC50 [2] [nM]
N#Cc1ccc(-c2cc(Cl)cc(COCC3(c4ccccc4)CCNCC3)c2)cc1,,,0.01 to 100,0.01 to 100,
Oc1ccc(-c2cc(COCC3(c4ccccc4)CCNCC3)cc(C(F)(F)F)c2)cc1,0.01 to 100,0.01 to 100,,,
CN1CCC(COCc2cc(-c3ccc(C#N)cc3)cc(C(F)(F)F)c2)(c2ccncc2)CC1,,,0.01 to 100,,0.01 to 100
Fc1ccc(-c2cc(COCC3(c4ccccc4)CCNCC3)cc(C(F)(F)F)c2)c(F)c1,0.01 to 100,0.01 to 100,,,
CC(=O)c1ccc(-c2cc(COCC3(c4ccccc4)CCNCC3)cc(C(F)(F)F)c2)cc1,100 to 300,0.01 to 100,,,
N#Cc1ccc(-c2cc(COCC3(c4ccccc4)CCNCC3)cc(C(=O)N3CCOCC3)c2)cc1,,,> 300,0.01 to 100,
C[C@@H](OCC1(c2ccccc2)CCN(C)CC1)c1cc(-c2ccc(C#N)cc2)cc(C(F)(F)F)c1,,,0.01 to 100,,0.01 to 100
COc1cc(-c2cc(COCC3(c4ccccc4)CCNCC3)cc(C(F)(F)F)c2)ccc1O,,,0.01 to 100,0.01 to 100,
COc1ccc(-c2cc(COCC3(c4ccccc4)CCNCC3)cc(C(F)(F)F)c2)c(OC)n1,,,0.01 to 100,0.01 to 100,
COc1ccc(-c2cc(COCC3(c4ccccc4)CCNCC3)cc(C(F)(F)F)c2)c(OC)c1,0.01 to 100,0.01 to 100,,,
FC(F)(F)c1cc(COCC2(c3ccccc3)CCNCC2)cc(-c2nccs2)c1,0.01 to 100,0.01 to 100,,,
COC(=O)c1cccc(-c2cc(COCC3(c4ccccc4)CCNCC3)cc(C(F)(F)F)c2)c1,,,100 to 300,0.01 to 100,
FC(F)(F)c1cc(COCC2(c3ccccc3)CCNCC2)cc(-c2ccc(Cl)nc2Cl)c1,0.01 to 100,0.01 to 100,,,
N#Cc1ccc(-c2cc(Br)cc(COCC3(c4ccccc4)CCNCC3)c2)cc1,0.01 to 100,0.01 to 100,,,
CN1CCC(COCc2cc(-c3ccc(C#N)cc3)cc(C(F)(F)F)c2)(c2cccc(Br)c2)CC1,,,0.01 to 100,,0.01 to 100

# Further lines, with some results ahead:
IC50 ([1]; Table 1) [nM],"IC50 [2, 3] [nM]",IC50 ([1]; Table 2) [nM],"IC50 [2, 4] [nM]",SMILES,IC50 [2] [nM]
,,> 300,0.01 to 100,CN(C)C(=O)c1cc(COCC2(c3ccccc3)CCNCC2)cc(-c2ccc(C#N)cc2)c1,
100 to 300,0.01 to 100,,,FC(F)(F)c1cc(COCC2(c3ccccc3)CCNCC2)cc(-c2ncccn2)c1,
0.01 to 100,0.01 to 100,,,Cc1ccc(-c2cc(COCC3(c4ccccc4)CCNCC3)cc(C(F)(F)F)c2)cc1,
100 to 300,0.01 to 100,,,COc1cc(-c2cc(COCC3(c4ccccc4)CCNCC3)cc(C(F)(F)F)c2)c(F)cn1,
0.01 to 100,0.01 to 100,,,N#Cc1ccc(-c2cc(COCC3(c4ccc(F)cc4)CCNCC3)cc(C(F)(F)F)c2)cc1,
> 300,0.01 to 100,,,COc1ccc(OC)c(-c2cc(COCC3(c4ccccc4)CCNCC3)cc(C(F)(F)F)c2)c1,
,,> 300,0.01 to 100,NC(=O)c1cc(COCC2(c3ccccc3)CCNCC2)cc(-c2ccc(F)cc2)c1,
,,0.01 to 100,0.01 to 100,N#Cc1ccc(-c2cc(F)cc(COCC3(c4ccccc4)CCNCC3)c2)cc1,
,,0.01 to 100,0.01 to 100,N#Cc1ccc(-c2cc(COCC3(c4ccc(F)cc4C#N)CCNCC3)cc(C(F)(F)F)c2)cc1,
,,0.01 to 100,0.01 to 100,FC(F)(F)c1cc(COCC2(c3ccccc3)CCNCC2)cc(-c2cnc(Cl)nc2)c1,
100 to 300,0.01 to 100,,,FC(F)(F)c1cc(COCC2(c3ccccc3)CCNCC2)cc(-c2cnc3ccccc3c2)c1,
> 300,0.01 to 100,,,COc1cc(-c2cc(COCC3(c4ccccc4)CCNCC3)cc(C(F)(F)F)c2)c(Cl)cn1,
,,0.01 to 100,0.01 to 100,N#Cc1ccc(-c2cc(COCC3(c4ccccc4)CCNCC3)cc(C(F)(F)F)c2)cc1Cl,
100 to 300,0.01 to 100,,,Cc1ccccc1-c1cc(COCC2(c3ccccc3)CCNCC2)cc(C(F)(F)F)c1,
,,> 300,0.01 to 100,Fc1ccc(-c2cc(F)cc(COCC3(c4ccccc4)CCNCC3)c2)cc1,
,,0.01 to 100,0.01 to 100,Fc1cccc(-c2cc(COCC3(c4ccccc4)CCNCC3)cc(C(F)(F)F)c2)c1F,
0.01 to 100,0.01 to 100,,,FC(F)(F)c1cc(COCC2(c3ccccc3)CCNCC2)cc(-c2ccccc2Cl)c1,
0.01 to 100,0.01 to 100,,,FC(F)(F)c1cc(COCC2(c3ccccc3)CCNCC2)cc(-c2cccnc2Cl)c1,
0.01 to 100,0.01 to 100,,,CC(OCC1(c2ccccc2)CCNCC1)c1cc(-c2ccc(C#N)cc2)cc(C(F)(F)F)c1 (stereo not shown),
0.01 to 100,0.01 to 100,,,COc1ccc(-c2ccc(C#N)cc2)cc1COCC1(c2ccccc2)CCNCC1,
,,0.01 to 100,0.01 to 100,COC(=O)c1ccc(-c2cc(COCC3(c4ccccc4)CCNCC3)cc(C(F)(F)F)c2)cc1,
,,0.01 to 100,0.01 to 100,N#Cc1ccc(-c2cc(COCC3(c4ccccc4)CCNCC3)cc(C(F)(F)F)c2)nc1,
